A short description of one data set: in vivo. The following applies: APP/PS1, mouse, po.
Data set [1] concerns Aβ deposits in brain tissues of APP/PS1 mice. As to the kind of experiment: In vivo activity in transgenic APP/PS1 mouse model. The following applies: 4-month-old APP/PS1 mice, orally administered for 3.5 months.

What is called bioavailability is the share of a dose that reaches the circulation, judged against a reference dose that is usually intravenous. Read a high bioavailability as good availability. Regarding `O=C1NCC(c2ccc(-c3csc(C(F)(F)F)c3)c(F)c2F)N1c1ccc2[nH]cnc2c1` (centres unmarked) [Compound 28, 1-(1H-benzimidazol-5-yl)-5-{2,3-difluoro-4-[5-(trifluoromethyl)thiophen-3-yl]phenyl}-imidazolidin-2-one], in the data set “in vivo”, the bioavailability came to 25%.

Take `O=C1NC(=O)N(c2ccc3[nH]cnc3c2)C1c1ccc(-c2nc(C(F)(F)F)cs2)cc1` (centres unmarked) [Compound 37, 1-(1H-benzimidazol-5-yl)-5-{4-[4-(trifluoromethyl)-1,3-thiazol-2-yl]phenyl}imidazolidine-2,4-dione]: the “Aβ deposits in brain tissues” value in data set [1] was “depletion of Aβ deposits in brain tissues”.

The values above are taken from patent US10584120B1, “Benzimidazole compounds and use thereof for treating Alzheimer's Disease or Huntington's Disease” (National Health Research Institutes, priority 2018, dated 2020).
